From the CheMixHub drug solubility set

Test: xn = mol fraction of the nth substance listed, in the solute-free solvent

CCOC(=O)OC1=C(c2cc(C)ccc2C)C(=O)NC12CCC(OC)CC2 (stereo not drawn) + CC(C)O + O
solubility (g/100 g solution)
Conditions	278.15 K	283.15 K	288.15 K	293.15 K	298.15 K	303.15 K	308.15 K	313.15 K	318.15 K
x2 = 0.2	0.638	0.86	1.19	1.61	2.18	2.85	3.73	4.8	6.15
x2 = 0.4	2.55	2.99	3.88	5	6.36	8.23	10.4	13.1	16.5
x2 = 0.6	3.11	3.92	5.04	6.01	7.67	9.71	12.3	15.4	19.1
x2 = 0.8	2.53	3.07	3.85	5.03	6.44	8.1	10.2	13.2	16.5

NC(=O)NC1NC(=O)NC1=O (stereo not drawn) + OCCO + O
solubility (g/100 g solution)
Conditions	288.15 K	293.15 K	298.15 K	303.15 K	308.15 K	313.15 K	318.15 K	323.15 K	328.15 K	333.15 K
x2 = 0.075	0.367	0.468	0.57	0.749	0.887	1.12	1.37	1.67	1.93	2.38
x2 = 0.177	0.387	0.478	0.581	0.732	0.858	1.02	1.24	1.47	1.75	2.09
x2 = 0.327	0.439	0.481	0.62	0.747	0.847	1	1.17	1.43	1.67	1.88
x2 = 0.564	0.406	0.49	0.601	0.725	0.819	0.962	1.1	1.29	1.44	1.7
x2 = 0.744	0.466	0.515	0.628	0.712	0.779	0.924	1.03	1.2	1.33	1.54

Cc1c(Br)c(=O)n(C2CCCC2)c2nc(Cl)ncc12 + CCOC(C)=O + CCO
solubility (g/100 g solution)
Conditions	278.15 K	283.15 K	288.15 K	293.15 K	298.15 K	303.15 K	308.15 K	313.15 K	318.15 K	323.15 K
x2 = 0.1	0.181	0.219	0.26	0.312	0.368	0.429	0.506	0.589	0.684	0.79
x2 = 0.2	0.238	0.286	0.341	0.403	0.475	0.553	0.645	0.746	0.86	0.987
x2 = 0.3	0.297	0.353	0.418	0.491	0.574	0.668	0.775	0.892	1.02	1.17
x2 = 0.4	0.349	0.414	0.492	0.571	0.665	0.77	0.888	1.02	1.17	1.32
x2 = 0.5	0.396	0.467	0.548	0.639	0.742	0.856	0.984	1.13	1.28	1.45
x2 = 0.6	0.438	0.514	0.602	0.701	0.811	0.931	1.07	1.22	1.38	1.57
x2 = 0.7	0.478	0.56	0.652	0.756	0.873	1	1.15	1.3	1.48	1.67
x2 = 0.8	0.52	0.608	0.706	0.817	0.939	1.08	1.23	1.39	1.57	1.77
x2 = 0.9	0.571	0.665	0.77	0.888	1.02	1.16	1.32	1.5	1.69	1.9

Cc1ncc(CO)c(CO)c1O.Cl + O + CC(C)O
solubility (g/100 g solution)
Conditions	278.15 K	283.15 K	288.15 K	293.15 K	298.15 K	303.15 K	308.15 K	313.15 K
x2 = 0.3	0.401	0.512	0.632	0.825	1.01	1.26	1.54	1.89
x2 = 0.4	0.684	0.867	1.11	1.47	1.84	2.34	2.86	3.53
x2 = 0.5	1.35	1.72	2.2	2.8	3.42	4.25	5.16	6.25
x2 = 0.6	2.56	3.18	3.92	4.83	5.89	7.02	8.34	9.79
x2 = 0.7	3.45	4.36	5.42	6.76	8.29	10.1	12	14.3
x2 = 0.8	4.83	6.11	7.62	9.29	11.3	13.4	15.8	18.8
x2 = 0.9	7.31	8.78	10.7	12.7	14.4	16.6	19.7	23.9

COC(=O)C(N)CS.Cl (stereo not drawn) + CCO + ClCCl
solubility (g/100 g solution)
Conditions	x2 = 0.05	x2 = 0.1	x2 = 0.2	x2 = 0.3	x2 = 0.4	x2 = 0.5	x2 = 0.6	x2 = 0.7	x2 = 0.8	x2 = 0.9
283.15 K	0.323	0.991	1.88	2.62	3.2	3.86	4.64	5.33	6.02	6.92
288.15 K	0.362	1.02	2.21	3.14	3.93	4.46	5.07	5.91	6.77	7.59
293.15 K	0.393	1.21	2.46	3.54	4.26	5.23	5.88	6.62	7.47	8.49
298.15 K	0.43	1.4	2.7	4.09	4.98	5.89	6.66	7.51	8.75	9.98
303.15 K	0.493	1.42	3.03	4.65	5.72	6.77	7.79	8.77	10.3	11.9

CC1CCC2C(C)C(OC(=O)CCC(=O)O)OC3OC4(C)CCC1C32OO4 (stereo not drawn) + CC(C)O + O
solubility (g/100 g solution)
Conditions	278.15 K	283.15 K	288.15 K	293.15 K	298.15 K	303.15 K	308.15 K	313.15 K	318.15 K
x2 = 0.03232	0.0811	0.106	0.134	0.171	0.208	0.263	0.325	0.397	0.486
x2 = 0.06978	0.226	0.289	0.358	0.447	0.536	0.663	0.804	0.965	1.16
x2 = 0.114	0.47	0.591	0.72	0.884	1.05	1.27	1.52	1.8	2.13
x2 = 0.1666	0.786	0.985	1.18	1.43	1.68	2.02	2.37	2.77	3.23
x2 = 0.2309	1.12	1.38	1.65	1.97	2.31	2.72	3.18	3.68	4.25
x2 = 0.3106	1.41	1.7	2.02	2.43	2.8	3.3	3.83	4.42	5.04
x2 = 0.4116	1.62	1.95	2.3	2.75	3.15	3.69	4.24	4.87	5.54
x2 = 0.5455	1.77	2.13	2.49	2.94	3.37	3.92	4.5	5.12	5.8
x2 = 0.7299	1.84	2.17	2.53	3	3.42	3.96	4.53	5.15	5.78
